The target in one experiment is T1, ERK5 (Homo sapiens, UniProt Q13164).
T1 construct: made in house
In words: ERK5 IMAP assay (fluorescence polarisation). The format is biochemical. The note with it: average (e.g. geometric mean) where more than one data point; read-out: ERK5 IC50.

Experiment [1] has as its system ERK5 autophosphorylation in HeLa cells. In words: EGF-stimulated HeLa cell assay (ERK5 autophosphorylation, Western blot). The experiment is classed as cell-based. To be noted: Homo sapiens, average where more than one data point. On the procedure: EGF-Stimulated HeLa Cell Assay
HeLa cells were serum starved overnight followed by treatment with ERK5 inhibitors for 1 hr. Cells were then stimulated with 100 ng/ml EGF for 10 or 15 min. The cells were harvested and lysed at 4° C. for 5-10 min in Laemmli buffer containing Halt protease and […] (Pierce). The lysates were boiled for 10 min at 100° C. Twenty microliters sample was run on 6% or 7.5% Tris-glycine gels and transferred to nitrocellulose. […] The IC50 was calculated from densitometry of top bands.

The subject of experiment [2] is HA-ERK5-ΔP493 (MEK5D-activated, MEF2D-Gal4/Gal4-Luc reporter) in HEK293T cells. As to the kind of experiment: Truncated dual-luciferase reporter assay, HEK293T forward transfection. The format is cell-based. The note with it: Homo sapiens, HEK-293T, average where more than one data point, read-out: Truncated ERK 5 Reporter Assay. On the procedure: Truncated Dual-Luciferase Reporter Assay
HEK293T and HeLa Forward Transfection
Constitutively-active, EGFP-tagged MEK5 (EGFP-MEK5D; 0.5 μg/μl), an EGFP-tagged construct containing no MEK5D (EGFP-C3; 0.5 μg/μl), and HA-tagged ERK5 with C-terminal truncation (HA-ERK5-ΔP493; 0.51 μg/μl) were diluted separately in sterile distilled water. Plasmid DNA and Lipofectamine 2000 (Invitrogen) were separately diluted in Opti-MEM growth media (reduced serum medium, Invitrogen), and incubated at room temperature for 5 min. Plasmid DNA (Tube A) and Lipofectamine 2000 (Tube B) were then combined and incubated for 20 min at room temperature to complex. Cells were then transfected by addition of 16 μl of the respective transfection mixture: 3 wells with EGFP-C3-containing (control) and 21 wells with MEK5D-containing transfection mixture (final volume, 100 μl). Cells were subsequently incubated for 4 h at 37° prior to addition of potential ERK5-inhibitory compounds.
Addition of Compounds to ERK5-Transfected HEK293T or HeLa Cells
Potential ERK5-inhibitory compounds were prepared as a 2× solution by addition of 2 μl compound (or DMSO as control) to 1 ml standard culture medium. Compounds were tested in triplicate at a concentration range of 0.003 μM, 0.01 μM, 0.03 μM, 0.1 μM, 0.3 μM and 1 μM (or 0.03 μM, 0.1 μM, 0.3 μM, 1 μM, 3 μM and 10 μM for BIX02189) by addition of 100 μl 2× solution to 100 μl transfected cells (final DMSO, 0.1% v/v). Cells were incubated for 24 h at 37° C.
Cell Lysis and Luciferase Quantification
After 24 h incubation in the absence (control) or presence of potential inhibitor, the culture medium was aspirated and cells lysed in 20 μl 1× passive lysis buffer (Dual-Luciferase Reporter Assay System, Promega) for a minimum of 15 min with agitation. Lysates were further processed immediately or stored at −80° C. Cellular inhibition of ERK5 was quantified using the Dual-Luciferase Reporter Assay System (Promega). Luciferase assay buffer/Luciferase assay substrate and Stop and Glo assay buffer/Stop and Glo substrate were prepared according to the manufacturer's instructions. Luciferase reagent (50 μl/well) was added immediately before luminescence detection using a FLUOstar Omega plate reader (BMG Labtech). Stop and Glo reagent (50 μl/well) was subsequently added, and the Renilla luciferase signal (transfection efficiency control) quantified.
The ERK5-specific signalling activity was calculated by subtraction of the EGFP-C3 luciferase signal from the EGFP-MEK5D-induced luminescence. Luminescence in the absence of potential ERK5 inhibitor (DMSO control) was taken as 100% ERK5 activity. […] Unless stated otherwise, data are mean±standard deviation of three independent experiments.

Experiment [3] relates to ERK5 (HA-ERK5 wt activated by EGFP-MEK5D, MEF2D-Gal4/Gal4-Luc reporter) in HEK293 cells. In words: Dual-luciferase reporter assay (ERK5 reporter), reverse-transfected HEK293 cells. To be noted: Homo sapiens, HEK293, read-out: ERK 5 Reporter Assay.
Experimental: Trypsinizing of Adherent Cell Colonies
Cells were regularly passaged in order to maintain optimum colony sizes on plates. In order to do this, and to harvest cells for use in the dual-luciferase reporter assay, adherent cells were lifted from tissue culture dishes. Cell media was removed via aspiration, and the cell monolayer was washed with phosphate buffered saline (PBS) solution (10 mL), which was then aspirated.
Reverse Transfection of HEK293 Cells
Preparation of EGFP Control (C3) Working Solution (for 1×96 Well Plate)
Preparation of HEK293 Cells for Reverse Transfection
Trypsinized HEK293 cells were re-suspended in 19 mL of fresh cell media and counted using haemocytometry. Cells were then diluted with fresh cell media to achieve a final cell concentration of 2×10^5 cells/mL. 1237.5 μL and 7425 μL of this cell media was added to the C3 and 5D working solutions respectively. 100 μL of the transfected cells were then aliquoted into the appropriate wells in a 96-well opaque sided tissue culture plate, and incubated at 37° C. for 6 h.
Addition of Compounds to HEK293 Cells
4 compounds was assayed per 96-well plate. For each compound, 1 mL of growth media was added to eight 1.5 mL Eppendorf® tubes. 6 μL of DMSO was added to two tubes for C3 and blank 5D wells, and 6 μL of the relevant compound stock solution was added to the 6 remaining tubes. […] Solutions of drug in media were thoroughly mixed, and 100 μL of the relevant compound was transferred (in triplicate) to the 96-well plate containing transfected HEK293 cells using an electronic multichannel pipette with variable tip spacing. Sealed plates were incubated at 37° C. for 24 h. Final compound concentrations were as follows; 30 μM, 10 μM, 3 μM, 1 μM and 0.3 μM.
15 mL of 1× passive lysis buffer (PLB) was prepared using 5×PLB (Dual-Luciferase Reporter Assay System, Promega® E1960), diluting with H2O. Assay plates prepared were removed from the incubator and the growth media removed by aspiration.

This note sets out measurements from patent US10344017B2, “Pyrrolcarboxamide derivatives for the inhibition of ERK5” (CANCER RESEARCH TECHNOLOGY LIMITED, priority 2014, dated 2019).

T1 sequence (Q13164 whole entry): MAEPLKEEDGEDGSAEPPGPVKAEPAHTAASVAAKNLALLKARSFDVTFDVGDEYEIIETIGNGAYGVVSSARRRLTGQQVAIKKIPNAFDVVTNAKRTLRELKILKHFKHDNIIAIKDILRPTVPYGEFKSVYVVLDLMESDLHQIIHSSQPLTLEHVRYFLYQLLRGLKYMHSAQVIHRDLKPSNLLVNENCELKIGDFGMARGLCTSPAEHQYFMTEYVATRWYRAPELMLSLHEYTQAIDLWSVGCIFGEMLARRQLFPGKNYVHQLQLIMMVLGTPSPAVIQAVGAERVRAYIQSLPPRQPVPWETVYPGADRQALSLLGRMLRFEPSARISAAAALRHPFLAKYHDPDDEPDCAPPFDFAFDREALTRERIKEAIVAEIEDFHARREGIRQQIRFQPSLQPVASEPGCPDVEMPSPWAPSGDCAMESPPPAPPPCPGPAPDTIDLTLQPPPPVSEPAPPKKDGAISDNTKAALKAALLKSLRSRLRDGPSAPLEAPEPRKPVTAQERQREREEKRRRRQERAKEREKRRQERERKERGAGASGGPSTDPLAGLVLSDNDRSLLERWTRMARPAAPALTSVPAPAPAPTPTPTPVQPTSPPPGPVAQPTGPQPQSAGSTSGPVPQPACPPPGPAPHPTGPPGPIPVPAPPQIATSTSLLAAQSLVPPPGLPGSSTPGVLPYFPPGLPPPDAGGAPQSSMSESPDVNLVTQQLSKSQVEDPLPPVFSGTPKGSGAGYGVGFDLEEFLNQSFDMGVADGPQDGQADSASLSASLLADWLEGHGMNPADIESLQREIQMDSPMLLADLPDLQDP

Consider `O=C(Nc1ccc(CC2CCNCC2)nc1)c1cc(C(=O)c2c(Cl)ccc(Cl)c2F)c[nH]1` [Example 111, 4-(3,6-Dichloro-2-fluorobenzoyl)-N-(6-(piperidin-4-ylmethyl)pyridin-3-yl)-1H-pyrrole-2-carboxamide], for which the IC50 on ERK5 was found to be 0.0051 µM; in experiment [1] it was 0.29 µM.
As to `O=C(Nc1ccc(CN2CCCCC2)nc1)c1cc(C(=O)c2c(Cl)ccc(Cl)c2F)c[nH]1` [Example 284, 4-(3,6-Dichloro-2-fluorobenzoyl)-N-(6-(piperidin-1-ylmethyl)pyridin-3-yl)-1H-pyrrole-2-carboxamide], the IC50 on ERK5 turned out to be 0.009 µM; in experiment [2], 0.013 µM.
For `COc1ccc(Cl)c(C(=O)c2c[nH]c(C(=O)Nc3ccc(CN4CCN(C)CC4)nc3)c2)c1F` [Example 246, 4-(6-Chloro-2-fluoro-3-methoxybenzoyl)-N-(6-((4-methylpiperazin-1-yl)methyl)pyridin-3-yl)-1H-pyrrole-2-carboxamide], in that order: 0.0085 µM and 0.069 µM.
For `CN(C)CCNc1ncc(NC(=O)c2cc(C(=O)c3c(Cl)ccc(Cl)c3F)c[nH]2)cn1` [Example 99, 4-(3,6-Dichloro-2-fluorobenzoyl)-N-(2-((2-(dimethylamino)ethyl)amino)pyrimidin-5-yl)-1H-pyrrole-2-carboxamide], in that order: 0.0153 µM and 0.122 µM.
For `O=C(Nc1ccc(NCCN2CCCC2)nc1)c1cc(C(=O)c2c(Cl)ccc(Cl)c2F)c[nH]1` [Example 275, 4-(3,6-Dichloro-2-fluorobenzoyl)-N-(6-((2-(pyrrolidin-1-yl)ethyl)amino)pyridin-3-yl)-1H-pyrrole-2-carboxamide], the IC50 is 0.0071 µM at ERK5 and 0.107 µM in experiment [2].
For the compound `CCN(CC)CCNc1ccc(NC(=O)c2cc(C(=O)c3c(Cl)ccc(Cl)c3F)c[nH]2)cn1` [Example 262, 4-(3,6-Dichloro-2-fluorobenzoyl)-N-(6-((2-(diethylamino)ethyl)amino)pyridin-3-yl)-1H-pyrrole-2-carboxamide], the IC50 at ERK5 stood at 0.0185 µM; in experiment [2], 0.149 µM.
In the same order, the values of `COc1ccc(Cl)c(C(=O)c2c[nH]c(C(=O)Nc3cnc(CN4CCNCC4)nc3)c2)c1F` [Example 250, 4-(6-Chloro-2-fluoro-3-methoxybenzoyl)-N-(2-(piperazin-1-ylmethyl)pyrimidin-5-yl)-1H-pyrrole-2-carboxamide] are 0.0158 µM and 0.573 µM.
In the same order, the values of `COc1ccc(Cl)c(C(=O)c2c[nH]c(C(=O)Nc3cnc(CN4CCN(C)CC4)nc3)c2)c1F` [Example 245, 4-(6-Chloro-2-fluoro-3-methoxybenzoyl)-N-(2-((4-methylpiperazin-1-yl)methyl)pyrimidin-5-yl)-1H-pyrrole-2-carboxamide] are 0.013 µM and 0.461 µM.
`COc1ccc(Cl)c(C(=O)c2c[nH]c(C(=O)Nc3cnc(CC4CCNCC4)nc3)c2)c1F` [Example 252, 4-(6-Chloro-2-fluoro-3-methoxybenzoyl)-N-(2-(piperidin-4-ylmethyl)pyrimidin-5-yl)-1H-pyrrole-2-carboxamide]: the IC50 on ERK5 is 0.0122 µM; in experiment [2] it was 0.627 µM.
As to `O=C(Nc1cnc(NCCN2CCCC2)nc1)c1cc(C(=O)c2c(Cl)ccc(Cl)c2F)c[nH]1` [Example 102, 4-(3,6-Dichloro-2-fluorobenzoyl)-N-(2-((2-(pyrrolidin-1-yl)ethyl)amino)pyrimidin-5-yl)-1H-pyrrole-2-carboxamide], the IC50 on ERK5 stood at 0.0166 µM; in experiment [2], 0.085 µM.
On to `O=C(Nc1ccc(CN2CCC(O)CC2)nc1)c1cc(C(=O)c2c(Cl)ccc(Cl)c2F)c[nH]1` [Example 282], for which the IC50 on ERK5 was determined as 0.0067 µM; in experiment [2], 0.044 µM.
Consider `COCCN(C)Cc1ccc(NC(=O)c2cc(C(=O)c3c(Cl)ccc(Cl)c3F)c[nH]2)cn1` [Example 278], for which the IC50 on ERK5 stood at 0.034 µM; in experiment [2] it was 0.04 µM.
Take `O=C(Nc1ccc(CN2CCOCC2)nc1)c1cc(C(=O)c2c(Cl)ccc(Cl)c2F)c[nH]1` [Example 115, 4-(3,6-Dichloro-2-fluorobenzoyl)-N-(6-(morpholinomethyl)pyridin-3-yl)-1H-pyrrole-2-carboxamide]: the IC50 at ERK5 stood at 0.0265 µM; in experiment [2] it was 0.031 µM.
Turning to `COc1ccc(Cl)c(C(=O)c2c[nH]c(C(=O)Nc3ccc(CC4CCN(C)CC4)nc3)c2)c1F` [Example 236, 4-(6-Chloro-2-fluoro-3-methoxybenzoyl)-N-(6-((1-methylpiperidin-4-yl)methyl)pyridin-3-yl)-1H-pyrrole-2-carboxamide], the IC50 on ERK5 came out at 0.0102 µM; in experiment [2], 0.096 µM.
In the same order, the values of `O=C(Nc1cnc(CC2CCNCC2)nc1)c1cc(C(=O)c2c(Cl)ccc(Cl)c2F)c[nH]1` [Example 253, 4-(3,6-Dichloro-2-fluorobenzoyl)-N-(2-(piperidin-4-ylmethyl)pyrimidin-5-yl)-1H-pyrrole-2-carboxamide] are 0.0075 µM and 0.239 µM.
For `O=C(Nc1ccc(NCCN2CCCCC2)nc1)c1cc(C(=O)c2c(Cl)ccc(Cl)c2F)c[nH]1` [Example 264, 4-(3,6-Dichloro-2-fluorobenzoyl)-N-(6-((2-(piperidin-1-yl)ethyl)amino)pyridin-3-yl)-1H-pyrrole-2-carboxamide], in that order: 0.0111 µM and 0.142 µM.
For `O=C(Nc1cnc(NCCN2CCCCC2)nc1)c1cc(C(=O)c2c(Cl)ccc(Cl)c2F)c[nH]1` [Example 104, 4-(3,6-Dichloro-2-fluorobenzoyl)-N-(2-((2-(piperidin-1-yl)ethyl)amino)pyrimidin-5-yl)-1H-pyrrole-2-carboxamide], in that order: 0.0104 µM and 0.09 µM.
Consider `O=C(Nc1ccc(NCCN2CCOCC2)nc1)c1cc(C(=O)c2c(Cl)ccc(Cl)c2F)c[nH]1` [Example 276, 4-(3,6-Dichloro-2-fluorobenzoyl)-N-(6-((2-morpholinoethyl)amino)pyridin-3-yl)-1H-pyrrole-2-carboxamide], for which the IC50 on ERK5 came out at 0.0581 µM; in experiment [2] it was 0.125 µM.
Regarding `O=C(Nc1cnc(NCCN2CCOCC2)nc1)c1cc(C(=O)c2c(Cl)ccc(Cl)c2F)c[nH]1` [Example 103, 4-(3,6-Dichloro-2-fluorobenzoyl)-N-(2-((2-morpholinoethyl)amino)pyrimidin-5-yl)-1H-pyrrole-2-carboxamide], the values for the IC50 (on ERK5; in experiment [2]) were 0.0368 µM and 0.135 µM, respectively.
On to `CN1CCC(NC(=O)c2cc(C(=O)c3c(F)ccc(Cl)c3F)c[nH]2)CC1` [Example 213, 4-(3-Chloro-2,6-difluorobenzoyl)-N-(1-methylpiperidin-4-yl)-1H-pyrrole-2-carboxamide], for which the IC50 at ERK5 amounted to 0.156 µM; in experiment [3], 3.51 µM.
As to `O=C(NC1CCNCC1)c1cc(C(=O)c2cccc(Cl)c2Cl)c[nH]1` [Example 160, 4-(2,3-Dichlorobenzoyl)-N-(piperidin-4-yl)-1H-pyrrole-2-carboxamide], the IC50 on ERK5 stood at 1.71 µM; in experiment [3], 30 µM.
With `CN(C)Cc1ccc(NC(=O)c2cc(C(=O)c3c(Cl)ccc(Cl)c3F)c[nH]2)cn1` [Example 277, 4-(3,6-Dichloro-2-fluorobenzoyl)-N-(6-((dimethylamino)methyl)pyridin-3-yl)-1H-pyrrole-2-carboxamide], the IC50 amounted to 0.022 µM on ERK5 and 0.036 µM in experiment [2].
